In patent publication US20230116196A1, “METHOD OF TREATING CNS DISORDERS WITH NEU[…] GABAERGIC COMPOUNDS” (priority 2017, published 2023):

Columns and labels:
GT1-7 cells [1] = experiment: Immunoblot of β3 S408/9 phosphorylation in GT1-7 cells; type: cell-based; details: 100 nM, 15 min
Procedure: GT1-7 cells that co-express mPRα and GABAARs were used to measure the level of phosphorylation at S408/9 position of β3 subunit. […] Expression of mPRα was confirmed using western blotting.
GT1-7 cells were treated with 100 nM AllO or P4 for 15 min and immunoblotted with antibodies specifically recognizing β3, actin, and […] β3 subunit (pS408/9). The ratio of pS408/9 β3 subunit immunoreactivity were then normalized to levels seen in vehicle treated to controls, n=6.

[2] = test system: GABAA receptor α4 and β3 subunits; experiment: Biotinylation: cell surface levels of GABAA receptor subunits in hippocampal slices; type: cell-based, mouse; details: for GABAA-β3-containing receptors at the plasma membrane / cell surface stability of the β3 subunit: acute hippocampal slices
Procedure: Hippocampi were dissected out of acute slices from 8 to 12 week old C57/Bl6 mice and lysed with […] including: 20 mM Tris-HCl, 150 mM NaCl, 5 mM EDTA, 10 mM NaF, 2 mM Na3VO4, 10 mM pyrophosphate, 0.1% SDS and 1% Triton after drug treatment. The β3 subunit was isolated using immunoprecipitation with β3 antibodies, after correction for protein content and the specific activity of labeling. Results were attained by SDS/PAGE followed by autoradiography (Abramian et al., 2010). For biotinylation experiments hippocampi were dissected out of acute slices from 8 to 12 week old C57/Bl6 mice and incubated in artificial cerebrospinal fluid (ACSF) described above at 30° C. for 1 h for recovery before experimentation. Slices were then placed on ice and incubated for 30 min with 1 mg/mL NHS-SS-biotin (Pierce). Excess biotin was removed by a 50 mM glycine quenching buffer, followed by washing of slices three times in ice-cold ACSF. The tissue was snap frozen on dry ice for 5 min, thawed at 4° C. and lysed. The lysates were solubilized with 2% Triton at 4° C. on a rotating wheel for 1 h. The insoluble material was removed by centrifugation, and 350-500 μg of protein lysate were incubated with NeutrAvidin beads (Pierce) for 18-24 h at 4° C. Bound material was eluted with sample buffer and subjected to SDS/PAGE and then immunoblotted with the indicated antibodies. Blots were then quantified using the CCD-based ChemiDoc XRS ? system. Antibodies against the β3 subunit and the phospho-β3 antibody were generated and verified by the laboratory of S.J.M. (Vien et al., 2015).
Hippocampal slices were treated as outlined above. Treated slices were then subject to biotinylation and lysis, and surface fractions were isolated on immobilized avidin. Surface (S) and total (T) fractions were immunoblotted with α4 and β3 subunit antibodies.
The ratio of surface/total (S/T) immunoreactivity was then normalized to levels seen in control (100%).

GT1-7 cells [3] = experiment: Patch-clamp of GABA-induced currents (IGABA) in GT1-7 cells; type: cell-based; details: 100 nM in electrolyte, GABA EC20, 20 min time course
Procedure: Patch-clamp recordings were made from GT1-7 cells. The magnitude of the GABA-induced currents (IGABA) at EC20 agonists concentration were then measured, in the presence of control electrolyte or that supplemented with 100 nM ALLO, or 100 nM ORG OD 02-0 over a time course of 20 min.

DGGCs from mutant mice = experiment: sIPSC decay time in DGGCs from mutant mice; type: cell-based, mouse; details: 100 nM ALLO
Procedure: The ability of 100 nM ALLO to modulate the decay time of sIPSCs was compared in DGGCs from WT and S940A mice as detailed in FIG. 2.

[4] = test system: GABAARs containing the α4 and β subunits, S408/9A mice; experiment: Biotinylation: cell surface levels of GABAARs in hippocampal slices from S408/9A mice; type: cell-based, mouse; details: 100 nM, 20 min
Procedure: Consistent with the examples above, hippocampal slices from WT and S408/9A mice were treated for 20 min with 100 nM SGE-516 or vehicle (Con) and subjected to biotinylation followed by immunoblotting with β and α4 subunit antibodies. The ratio of surface/total (S/T) immunoreactivity was then normalized to levels seen in control (100%).

DGGCs from S408/9A mice = experiment: Sustained effect on tonic current in DGGCs from S408/9A mice; type: cell-based, mouse; details: 100 nM, washout
[5] = test system: GABAA receptor α4 S443 and β3 S408/9; experiment: Phosphorylation of S443 and S408/9 in brains of mice after IP injection; type: in vivo, mouse; details: 5 mg/kg IP, 30 min after treatment
Procedure: C57/B16 mice injected with SGE-516 (5 mg/kg IP), or vehicle. 30 min after the treatment mice were sacrificed by microwave irradiation. SDS-soluble hippocampal extracts were then immunoblotted with pS443, α4, pS408/9, or β3 subunit antibodies.

[6] = test system: GABAA receptor α4 subunit S443; experiment: Immunoblot of α4 S443 phosphorylation in hippocampal slices; type: cell-based, mouse; details: 100 SGE-516 for 5 min
Procedure: Treatment of hippocampal slices with SGE-516 increased the phosphorylation of S408/9 measured using pS408/9 antibodies. To produce antibodies specific for phosphorylated S443, rabbits were injected with a synthetic peptide corresponding to residues […] of the murine α4 subunit in which the serine residue corresponding to S443 was chemically phosphorylated; […]. Hippocampal slices were treated with vehicle (Con), or SGE-516 for 20 min. Slices were immunoblotted with pS408/9, β3, or actin antibodies. The ratio of pS408/9/β3 immunoreactivity was then normalized to control slices (100%=the line).
Affinity purified pS443 was used to immunoblot varying concentrations of the immunizing phosphor-peptide (PP). pS443 was used to immunoblot extracts of hippocampal slices treated without preadsorption (0), preadsorbed with the dephosphorylated (DP), or phosphorylated antigen (PP). […] Moreover, the detection of this band was blocked by the phospho—but not the dephospho-antigen (FIG. 7B).
Hippocampal slices were treated with vehicle (Con) or 100 SGE-516 for 5 min and then immunoblotted with pS443 and α4 antibodies as indicated. pS443 immunoreactivity in hippocampal slices was increased by exposure to SGE-516, while total α4 levels were unaffected (FIG. 7C).

Row | Compound | S408/9 phosphorylation in GT1-7 cells (GT1-7 cells [1]) | GABAA-β3-containing receptors at the plasma membrane / cell surface stability of the β3 subunit ([2]; 100 nM) | GABA-evoked currents recorded from GT1-7 cells (GT1-7 cells [3]) | sIPSC decay time in the mutant mice (DGGCs from mutant mice) | increase of plasma membrane levels of GABAARs in slices from S408/9A mice [4] | tonic current in S408/9A mice (DGGCs from S408/9A mice) | plasma membrane levels of GABAARs containing the α4 and β subunits, S/T normalized to control (100%) ([2]; WT mice slices, 100 nM, 20 min) | plasma membrane accumulation of both the α4 and β3 subunits ([2]; hippocampal slices, surface/total) | phosphorylation of S443 and S408/9 in the brains of mice [5] | pS443 immunoreactivity in hippocampal slices [6] | total α4 levels [6]
1 | CC(=O)[C@H]1CC[C@H]2[C@@H]3CC[C@H]4C[C@H](O)CC[C@]4(C)[C@H]3CC[C@]12C [ALLO, Allopregnanolone] | increase | increases | sustained increases | did not increase |  |  |  |  |  |  | 
2 | C[C@@]1(O)CC[C@@]2(C)[C@H](CC[C@@H]3[C@@H]2CC[C@]2(C)[C@@H](C(=O)Cn4nccn4)CC[C@@H]32)C1 [SGE-516] |  | increases |  |  | not seen | did not modify | 175-185% | increased | increased | increased | unaffected
